In patent publication US5585353A, “Antibiotic peptides containing D-amino acids” (The Rockefeller University, priority 1994, dated 1996):
Like-named read-outs stand apart in the source and are kept apart here. Residues, ends and D or L forms follow the SMILES beside them. No end group written: not given here.

Key:
[1] = tested on: E. coli D21; assay: inhibition zone assay, lethal concentration; type: cell-based; conditions: E. coli D21, thin agarose plates
Protocol: (§1) Thin agar or agarose plates (8.5 cm diameter) were prepared with 6 ml of rich medium containing 100 ug/ml of streptomycin and 2×10^5 viable cells of a test organism resistant to streptomycin. Wells of 3.5 mm diameter were punched in the plates and 3 ul of serially diluted samples were placed in the wells. The diameters of the zones of inhibition around the wells were measured after overnight incubation at 30° or 37° C. For each peptide the squares of the zone diameters were plotted against the logarithm of the concentration, and from the slopes and intercepts the lethal concentrations were calculated as described by Hultmark (1983) EMBO J. 2, 571-76 or Hultmark et al (1982) Eur. J. Biochem. 127 207-217 each of which being incorporated herein by reference.
(§2) Lethal Concentrations calculated from inhibition zones on thin agarose
(§3) plates seeded with the respective organisms. D21: E. coli; OT97: P.

[2] = tested on: Sheep red cells; assay: inhibition zone assay, lethal concentration on sheep red cells; type: cell-based; conditions: thin agarose plates
Protocol: as §1, §2
(§4) S. aureus Cowan 1; Strep: S. pyogenes; SRC: Sheep red cells.; *all amino

[3] = tested on: trypsin; assay: proteolytic resistance to trypsin, residual antibiotic by inhibition zone on E. coli D21; type: in vitro ADME; conditions: 20 min at 36° C.
Protocol: (§5) FIGS. 1 and 2 graphically illustrate the resistance of the compounds of this invention to enzymatic hydrolysis by trypsin or immune inhibitor A (In A). The experiments were conducted as follows:
(§6) The original solutions of the enzymes contained 5 mg/ml in the case of trypsin and 0.1 mg/ml in the case of InA. These two samples were diluted as follows: A 10^-1, B 10^-2, C 10^-3 and D 10^-4. From each dilution, 2 ul were mixed with 2 ul of two peptides (D-CA and L-CA, both containing 1.3 ug/ul=162 pmol/ul). Control mixtures were made with 2 ul water and 2 ul peptide. All samples were incubated for 20 min at 36° C. Before and after the incubation, all samples were kept on ice. After the incubation 3 ul were placed in wells on plates seeded with E. coli D21 in order the determine the amount of antibiotic that was left. The diameter of the inhibition zone was recorded and compared with a previously prepared a standard curve. Results are as given in the table and illustrated in the figures.

[4] = tested on: P. aeruginosa OT97; assay: inhibition zone assay, lethal concentration; type: cell-based; conditions: P. aeruginosa OT97, thin agarose plates
Protocol: as §1, §2, §3
(§7) aeruginosa; Bs11: B. subtilis; +ME: plates prepared with medium E; Staph: […]

[5] = tested on: immune inhibitor A (In A); type: in vitro ADME; conditions: InA series, Control (no Enzyme), 20 min at 36° C.; for Zone of inhibition: peptide with water
Protocol: as §5, §6

[6] = molecular target: immune inhibitor A (In A) (Bacillus thuringiensis subsp. alesti, UniProt P23382); type: in vitro ADME; conditions: 20 min at 36° C.; for Zone of inhibition: E. coli D21 plates
Protocol: as §5, §6

[7] = tested on: S. aureus Cowan 1; assay: inhibition zone assay, lethal concentration; type: cell-based; conditions: S. aureus Cowan 1, thin agarose plates
Protocol: as §1, §2
aeruginosa; Bs11: B. subtilis; +ME: plates prepared with medium E; Staph:
as §4

[8] = tested on: S. pyogenes; assay: inhibition zone assay, lethal concentration; type: cell-based; conditions: thin agarose plates
Protocol: as §1, §2, §4

[9] = tested on: B. subtilis Bs11; assay: inhibition zone assay, lethal concentration; type: cell-based; conditions: for Lethal Concentrations Bs11 +ME: B. subtilis Bs11, plates prepared with medium E; for Lethal Concentrations Bs11: B. subtilis Bs11, thin agarose plates
Protocol: as §1, §2, §7

[10] = Trypsin dilution A (10^-1 of 5 mg/ml), E. coli D21 plates
[11] = Trypsin dilution B (10^-2), E. coli D21 plates
[12] = Trypsin dilution C (10^-3), E. coli D21 plates
[13] = Trypsin dilution D (10^-4), E. coli D21 plates
[14] = Trypsin series, Control (no enzyme)
[15] = Trypsin series, Control (no enzyme), peptide with water
[16] = InA dilution A (10^-1 of 0.1 mg/ml)

immune inhibitor A (In A) (Bacillus thuringiensis subsp. alesti, UniProt P23382), sequence (P23382 41-687): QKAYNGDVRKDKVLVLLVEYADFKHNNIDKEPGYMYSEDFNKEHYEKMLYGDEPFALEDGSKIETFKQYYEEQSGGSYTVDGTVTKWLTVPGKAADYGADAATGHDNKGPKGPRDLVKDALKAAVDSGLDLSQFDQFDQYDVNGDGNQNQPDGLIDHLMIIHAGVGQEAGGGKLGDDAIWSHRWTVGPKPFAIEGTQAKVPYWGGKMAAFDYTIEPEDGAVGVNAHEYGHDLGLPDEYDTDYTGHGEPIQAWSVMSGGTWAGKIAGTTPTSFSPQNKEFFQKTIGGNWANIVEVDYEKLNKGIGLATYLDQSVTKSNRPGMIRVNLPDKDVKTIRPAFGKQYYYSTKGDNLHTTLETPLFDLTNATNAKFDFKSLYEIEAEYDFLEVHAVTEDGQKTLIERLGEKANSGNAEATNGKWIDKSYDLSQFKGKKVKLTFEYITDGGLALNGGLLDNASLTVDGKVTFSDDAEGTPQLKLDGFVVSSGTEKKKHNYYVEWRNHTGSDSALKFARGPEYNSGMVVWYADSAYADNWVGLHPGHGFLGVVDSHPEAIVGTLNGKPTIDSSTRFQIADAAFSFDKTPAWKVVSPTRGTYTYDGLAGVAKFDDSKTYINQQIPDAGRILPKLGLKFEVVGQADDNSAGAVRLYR

`CC[C@@H](C)[C@@H](NC(=O)CNC(=O)[C@@H](CC(=O)O)NC(=O)[C@@H](CCCNC(=N)N)NC(=O)[C@H](NC(=O)[C@@H](CC(N)=O)NC(=O)[C@@H](CCC(N)=O)NC(=O)CNC(=O)[C@H](NC(=O)[C@@H](CCCCN)NC(=O)[C@@H](CCC(=O)O)NC(=O)[C@H](NC(=O)[C@@H](CCCCN)NC(=O)[C@@H](CCCCN)NC(=O)[C@@H](Cc1ccccc1)NC(=O)[C@@H](CC(C)C)NC(=O)[C@@H](CCCCN)NC(=O)[C@@H](Cc1c[nH]c2ccccc12)NC(=O)[C@H](N)CCCCN)[C@H](C)CC)C(C)C)[C@H](C)CC)C(=O)N[C@@H](C(=O)N[C@H](CCCCN)C(=O)N[C@H](C)C(=O)NCC(=O)N1CCC[C@@H]1C(=O)N[C@H](C)C(=O)N[C@@H](C(=O)N[C@H](C)C(=O)N[C@@H](C(=O)N[C@@H](C(=O)NCC(=O)N[C@H](CCC(N)=O)C(=O)N[C@H](C)C(=O)N[C@@H](C(=O)N[C@H](CCC(N)=O)C(=O)N[C@@H](C(=O)N[C@H](C)C(=O)N[C@H](CCCCN)C(N)=O)[C@H](C)CC)[C@H](C)O)C(C)C)C(C)C)C(C)C)[C@H](C)CC` [Compound 2] (HELM PEPTIDE1{[dK].[dW].[dK].[dL].[dF].[dK].[dK].[dI].[dE].[dK].[dV].G.[dQ].[dN].[dI].[dR].[dD].G.[dI].[dI].[dK].[dA].G.[dP].[dA].[dV].[dA].[dV].[dV].G.[dQ].[dA].[dT].[dQ].[dI].[dA].[dK].[am]}$$$$V2.0) was tested, and the “Lethal Concentrations D21” value [1] was 0.3 µM, the “Lethal Concentrations SRC” value [2] was greater than 300 µM and the “Amount of peptide left” value ([3]; Trypsin dilution A (10^-1)) was 535 pmol. For the same compound, the Conc. ([3]; Trypsin dilution A (10^-1)) was 178 µM, the Percent remaining ([3]; Trypsin dilution A (10^-1)) was 110% and the Zone of inhibition [3, 10] was 1.55 cm. For the same compound, the “Amount of peptide left” value ([3]; Trypsin dilution B (10^-2)) was 489 pmol, the Conc. ([3]; Trypsin dilution B (10^-2)) was 163 µM and the Percent remaining ([3]; Trypsin dilution B (10^-2)) was 101%. For the same compound, the Zone of inhibition [3, 11] was 1.53 cm, the “Amount of peptide left” value ([3]; Trypsin dilution C (10^-3)) was 512 pmol and the Conc. ([3]; Trypsin dilution C (10^-3)) was 171 µM. The Percent remaining ([3]; Trypsin dilution C (10^-3)) was 106%, the Zone of inhibition [3, 12] was 1.54 cm and the “Amount of peptide left” value ([3]; Trypsin dilution D (10^-4)) was 489 pmol. It also gave a Conc. ([3]; Trypsin dilution D (10^-4)) of 163 µM, a Percent remaining ([3]; Trypsin dilution D (10^-4)) of 101% and a Zone of inhibition [3, 13] of 1.53 cm. For the same compound, the “Amount of peptide left” value [3, 14] was 512 pmol, the Conc. [3, 14] was 171 µM and the Percent remaining [3, 14] was 106%. For the same compound, the Zone of inhibition [3, 15] was 1.54 cm, the “Lethal Concentrations OT97” value [4] was 0.8 µM and the “Amount of peptide left” value [5] was 535 pmol. The Conc. [5] was 178 µM, the Percent remaining [5] was 110% and the Zone of inhibition [5] was 1.55 cm. The “Amount of peptide left” value ([6]; InA dilution A (10^-1)) was 512 pmol, the Conc. ([6]; InA dilution A (10^-1)) was 171 µM and the Percent remaining ([6]; InA dilution A (10^-1)) was 106%. For the same compound, the Zone of inhibition [6, 16] was 1.54 cm, the “Amount of peptide left” value ([6]; InA dilution B (10^-2)) was 468 pmol and the Conc. ([6]; InA dilution B (10^-2)) was 156 µM. For the same compound, the Percent remaining ([6]; InA dilution B (10^-2)) was 96%, the Zone of inhibition ([6]; InA dilution B (10^-2)) was 1.52 cm and the “Amount of peptide left” value ([6]; InA dilution C (10^-3)) was 468 pmol. It also gave a Conc. ([6]; InA dilution C (10^-3)) of 156 µM, a Percent remaining ([6]; InA dilution C (10^-3)) of 96% and a Zone of inhibition ([6]; InA dilution C (10^-3)) of 1.52 cm. The “Amount of peptide left” value ([6]; InA dilution D (10^-4)) was 448 pmol, the Conc. ([6]; InA dilution D (10^-4)) was 149 µM and the Percent remaining ([6]; InA dilution D (10^-4)) was 92%. For the same compound, the Zone of inhibition ([6]; InA dilution D (10^-4)) was 1.51 cm, the “Lethal Concentrations Staph” value [7] was greater than 300 µM and the “Lethal Concentrations Strep” value [8] was 2 µM. For the same compound, the “Lethal Concentrations Bs11 +ME” value [9] was 30 µM and the “Lethal Concentrations Bs11” value [9] was 3 µM.
“KWKLFKKIEKVGQNIRDGIIKAGPAVAVVGQATQIAK-NH2 [Compound 1, Cecropin A]” was tested, and the “Lethal Concentrations D21” value [1] was 0.2 µM, the “Lethal Concentrations SRC” value [2] was greater than 200 µM and the “Amount of peptide left” value ([3]; Trypsin dilution A (10^-1)) was 0 pmol. The Conc. ([3]; Trypsin dilution A (10^-1)) was 0 µM, the Percent remaining ([3]; Trypsin dilution A (10^-1)) was 0% and the Zone of inhibition [3, 10] was “None”. For the same compound, the “Amount of peptide left” value ([3]; Trypsin dilution B (10^-2)) was 0 pmol, the Conc. ([3]; Trypsin dilution B (10^-2)) was 0 µM and the Percent remaining ([3]; Trypsin dilution B (10^-2)) was 0%. For the same compound, the Zone of inhibition [3, 11] was “None”, the “Amount of peptide left” value ([3]; Trypsin dilution C (10^-3)) was 34 pmol and the Conc. ([3]; Trypsin dilution C (10^-3)) was 11 µM. For the same compound, the Percent remaining ([3]; Trypsin dilution C (10^-3)) was 6.8%, the Zone of inhibition [3, 12] was 0.93 cm and the “Amount of peptide left” value ([3]; Trypsin dilution D (10^-4)) was 131 pmol. The Conc. ([3]; Trypsin dilution D (10^-4)) was 44 µM, the Percent remaining ([3]; Trypsin dilution D (10^-4)) was 27% and the Zone of inhibition [3, 13] was 1.25 cm. For the same compound, the “Amount of peptide left” value [3, 14] was 373 pmol, the Conc. [3, 14] was 124 µM and the Percent remaining [3, 14] was 77%. For the same compound, the Zone of inhibition [3, 15] was 1.45 cm, the “Lethal Concentrations OT97” value [4] was 1 µM and the “Amount of peptide left” value [5] was 469 pmol. The Conc. [5] was 156 µM, the Percent remaining [5] was 96% and the Zone of inhibition [5] was 1.49 cm. For the same compound, the “Amount of peptide left” value ([6]; InA dilution A (10^-1)) was 0 pmol, the Conc. ([6]; InA dilution A (10^-1)) was 0 µM and the Percent remaining ([6]; InA dilution A (10^-1)) was 0%. For the same compound, the Zone of inhibition [6, 16] was “None”, the “Amount of peptide left” value ([6]; InA dilution B (10^-2)) was 316 pmol and the Conc. ([6]; InA dilution B (10^-2)) was 105 µM. For the same compound, the Percent remaining ([6]; InA dilution B (10^-2)) was 65%, the Zone of inhibition ([6]; InA dilution B (10^-2)) was 1.42 cm and the “Amount of peptide left” value ([6]; InA dilution C (10^-3)) was 442 pmol. It also gave a Conc. ([6]; InA dilution C (10^-3)) of 147 µM, a Percent remaining ([6]; InA dilution C (10^-3)) of 91% and a Zone of inhibition ([6]; InA dilution C (10^-3)) of 1.48 cm. The “Amount of peptide left” value ([6]; InA dilution D (10^-4)) was 469 pmol, the Conc. ([6]; InA dilution D (10^-4)) was 156 µM and the Percent remaining ([6]; InA dilution D (10^-4)) was 96%. The Zone of inhibition ([6]; InA dilution D (10^-4)) was 1.49 cm, the “Lethal Concentrations Staph” value [7] was greater than 300 µM and the “Lethal Concentrations Strep” value [8] was 5 µM. The “Lethal Concentrations Bs11 +ME” value [9] was 60 µM and the “Lethal Concentrations Bs11” value [9] was 3 µM.
